Measured values published in patent US20250270198A1, “PYRIDONE COMPOUNDS AS TRPA1 INHIBITORS” (D. E. Shaw Research, LLC, priority 2022, published 2025).

What was measured:
hERG channel = hERG channel (Homo sapiens (Human), UniProt Q12809); test: hERG activity, automated patch clamp (SyncroPatch); assay type: cell-based; details: CHO-K1 cells stably expressing hERG; tail current at −50 mV; compounds at 50 μM and 100 μM; Table 5
Method: This assay was used to evaluate the disclosed compounds' inhibition activities against the hERG channel.
CHO-K1 cells stably expressing hERG were grown in Ham's F-12 Medium with Glutamine containing 10% heat-inactivated FBS, 1% Penicillin/Streptomycin, Hygromycin (100 μg/ml), and G418 (100 μg/ml). Cells used for electrophysiology were plated in plastic culture flasks and grown at 37° C. in a 5% CO2-humidified incubator per ChanPharm SOP. Stocks were maintained in cryogenic storage.
The cells were bathed in an extracellular solution containing 140 mM NaCl, 4 mM KCl, 2 mM CaCl2), 1 mM MgCl2, 5 mM Glucose, and 10 mM HEPES; pH adjusted to 7.4 with NaOH; 295-305 mOsm. The internal solution contained 10 mM KCl, 110 mM KF, 10 mM NaCl, 10 mM EGTA, 10 mM HEPES; pH adjusted to 7.2 with KOH; 280-285 mOsm. All compounds were dissolved in DMSO at 30 mM. Compound stock solutions were freshly diluted with external solution to concentrations of 50 μM and 100 μM. The highest content of DMSO […].
All experiments were performed at room temperature. Each cell acted as its own control. In preparation for a recording session, intracellular solution (see above) was loaded into the intracellular compartments of the automated patch clamp platform SyncroPatch (Nanion) chip and the cell suspension was pipetted into the extracellular compartments. After establishment of a whole-cell configuration, membrane current recordings, and compound application were enabled by means of the SyncroPatch. hERG currents were elicited by a voltage pulse pattern with fixed amplitudes (depolarization: +20 mV amplitude, 300 ms duration; repolarization: −50 mV, 300 ms duration) repeated at 3 s intervals from a holding potential of −80 mV.
Data acquisition and analysis were performed using DataControl384 (Nanion's proprietary software). To determine the (percentage) inhibition, the last single pulse in the pulse train (i.e., the repolarization step to −50 mV; tail current) at a given compound concentration was used. AUC and peak values, obtained in the presence of compound, were normalized to control values in the absence of compound.

human TRPA1 channel = human TRPA1 channel (Homo sapiens (Human), UniProt O75762); test: TRPA1 inhibitor activity, automated patch clamp (SyncroPatch); assay type: cell-based; details: CHO cells inducibly expressing human TRPA1; currents elicited by carvacrol (300 μM), holding potential −60 mV; Table 5
Method: This assay was used to evaluate the disclosed compounds' inhibition activities against the human TRPA1 channel.
CHO cells inducibly expressing human TRPA1 were grown in DMEM containing 10% heat-inactivated FBS, 1 mM Sodium Pyruvate, 2 mM L-Glutamine, Zeocin (100 μg/ml) and Blasticidin (10 μg/ml). Expression was induced by addition of Doxycycline (1 μg/ml) 24 hours before experiments. Cells used for electrophysiology were plated in plastic culture flasks and grown at 37° C. in a 5% CO2-humidified tissue culture incubator per ChanPharm SOP. Stocks were maintained in cryogenic storage.
The cells were bathed in an extracellular solution containing 80 mM NaCl, 60 mM NMDG, 4 mM KCl, 2 mM CaCl2), 6 mM MgCl2, 5 mM Glucose. 10 mM HEPES, 3 mM HEDTA; pH adjusted to 7.4 with NaOH; 305-310 mOsm. All compounds were dissolved in DMSO at 30 mM. The internal solution contained 10 mM CsCl, 110 mM CsF, 10 mM NaCl, 10 mM EGTA, 10 mM HEPES, 4 mM MgATP, 0.25 mM NaGTP, 4 mM BAPTA; pH adjusted to 7.2 with CsOH; 285-290 mOsm. Compound stock solutions were freshly diluted with external solution to concentrations of 3 nM, 10 nM 30 nM, 100 nM, 300 nM, 1 μM, 3 μM, 10 μM, and 30 μM. The highest content of DMSO (0.1%) was present at 30 μM.
All experiments were performed at room temperature. Each cell acted as its own control. In preparation for a current recording session, intracellular solution (see above) was loaded into the intracellular compartments of the automated patch clamp platform SyncroPatch (Nanion) chip and the cell suspension was pipetted into the extracellular compartments. After establishment of a whole-cell configuration, membrane current recordings and compound application were enabled by means of the SyncroPatch. TRPA1 currents were elicited by application of carvacrol (300 μM) at a constant holding potential of −60 mV (see Table A below).
To determine IC50 values, AUC and peak values, obtained in the presence of a given compound concentration, were normalized to control values in absence of compound. Using DataControl384 (Nanion's proprietary software), IC50 values were derived by fitting the normalized data to the Hill equation.

Chain of human TRPA1 channel (O75762 whole entry): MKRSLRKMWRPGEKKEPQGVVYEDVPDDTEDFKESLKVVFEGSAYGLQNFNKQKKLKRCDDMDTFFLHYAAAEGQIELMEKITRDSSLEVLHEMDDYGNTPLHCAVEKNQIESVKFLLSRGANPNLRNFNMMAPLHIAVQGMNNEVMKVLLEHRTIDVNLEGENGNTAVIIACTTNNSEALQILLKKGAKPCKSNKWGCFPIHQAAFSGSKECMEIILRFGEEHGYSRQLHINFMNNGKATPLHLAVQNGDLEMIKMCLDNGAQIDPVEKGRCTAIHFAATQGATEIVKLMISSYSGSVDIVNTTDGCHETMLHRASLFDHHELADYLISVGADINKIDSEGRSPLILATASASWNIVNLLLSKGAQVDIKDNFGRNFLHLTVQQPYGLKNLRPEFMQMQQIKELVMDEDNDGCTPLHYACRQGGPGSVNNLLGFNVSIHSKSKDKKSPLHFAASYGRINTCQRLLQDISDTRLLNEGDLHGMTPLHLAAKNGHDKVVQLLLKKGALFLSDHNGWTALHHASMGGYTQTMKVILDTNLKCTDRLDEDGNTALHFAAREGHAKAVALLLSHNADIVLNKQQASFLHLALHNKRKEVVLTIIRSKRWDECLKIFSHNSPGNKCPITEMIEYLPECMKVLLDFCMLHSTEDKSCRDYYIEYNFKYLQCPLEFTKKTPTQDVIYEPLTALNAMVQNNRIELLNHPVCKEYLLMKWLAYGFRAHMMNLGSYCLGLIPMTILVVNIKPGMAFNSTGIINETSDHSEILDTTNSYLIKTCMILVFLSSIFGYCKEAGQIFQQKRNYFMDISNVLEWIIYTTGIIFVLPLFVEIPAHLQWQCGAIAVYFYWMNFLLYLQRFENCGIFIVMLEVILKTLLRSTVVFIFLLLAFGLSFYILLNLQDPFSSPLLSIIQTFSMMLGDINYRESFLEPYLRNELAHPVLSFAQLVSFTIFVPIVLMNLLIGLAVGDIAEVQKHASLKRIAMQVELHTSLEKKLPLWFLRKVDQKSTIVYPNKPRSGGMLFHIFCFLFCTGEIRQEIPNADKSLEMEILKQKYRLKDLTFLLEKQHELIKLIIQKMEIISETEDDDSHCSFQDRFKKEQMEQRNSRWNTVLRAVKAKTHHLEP
Chain of hERG channel (Q12809 whole entry): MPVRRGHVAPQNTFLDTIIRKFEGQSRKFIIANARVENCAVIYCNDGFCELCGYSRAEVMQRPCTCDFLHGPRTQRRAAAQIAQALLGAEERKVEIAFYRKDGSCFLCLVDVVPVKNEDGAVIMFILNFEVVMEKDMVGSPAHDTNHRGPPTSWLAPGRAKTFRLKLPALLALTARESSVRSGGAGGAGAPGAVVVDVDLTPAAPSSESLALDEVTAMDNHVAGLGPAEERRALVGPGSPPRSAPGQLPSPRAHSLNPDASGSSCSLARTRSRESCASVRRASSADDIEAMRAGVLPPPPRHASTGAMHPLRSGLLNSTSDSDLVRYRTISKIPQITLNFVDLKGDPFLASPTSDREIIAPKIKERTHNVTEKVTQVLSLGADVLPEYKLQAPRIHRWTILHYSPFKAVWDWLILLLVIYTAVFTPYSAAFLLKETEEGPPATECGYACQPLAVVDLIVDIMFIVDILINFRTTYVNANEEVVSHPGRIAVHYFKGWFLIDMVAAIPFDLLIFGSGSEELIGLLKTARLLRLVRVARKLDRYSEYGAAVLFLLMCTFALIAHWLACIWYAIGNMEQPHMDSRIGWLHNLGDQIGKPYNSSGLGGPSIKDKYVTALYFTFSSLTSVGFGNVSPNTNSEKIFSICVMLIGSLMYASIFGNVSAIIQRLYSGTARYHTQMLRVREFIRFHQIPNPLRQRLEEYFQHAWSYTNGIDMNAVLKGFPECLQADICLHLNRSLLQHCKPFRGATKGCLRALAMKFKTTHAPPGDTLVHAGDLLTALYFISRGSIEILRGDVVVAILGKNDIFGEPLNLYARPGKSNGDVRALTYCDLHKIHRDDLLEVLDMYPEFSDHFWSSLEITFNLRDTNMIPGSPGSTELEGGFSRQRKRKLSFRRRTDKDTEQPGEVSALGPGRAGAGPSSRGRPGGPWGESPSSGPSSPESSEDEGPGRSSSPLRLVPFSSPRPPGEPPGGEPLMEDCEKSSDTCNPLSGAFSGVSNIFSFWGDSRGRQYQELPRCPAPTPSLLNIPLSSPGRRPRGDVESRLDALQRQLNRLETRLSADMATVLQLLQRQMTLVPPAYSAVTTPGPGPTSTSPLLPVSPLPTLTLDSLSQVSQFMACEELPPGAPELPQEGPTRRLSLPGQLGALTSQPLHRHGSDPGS

Work on `O=c1c(Cl)c(CO)ncn1Cc1nc(C[C@H](O)c2ccc(Cl)cc2)no1` [Compound 54, (S)-5-chloro-3-((3-(2-(4-chlorophenyl)-2-hydroxyethyl)-1,2,4-oxadiazol-5-yl)methyl)-6-(hydroxymethyl)pyrimidin-4(3H)-one] yielded an IC50 (hERG channel) greater than 50 µM and an IC50 (human TRPA1 channel) of less than 0.3 µM.

With `COc1ncn(Cc2nc(C[C@H](O)c3ccc(Cl)cc3)no2)c(=O)c1Cl` [Compound 70, (S)-5-chloro-3-((3-(2-(4-chlorophenyl)-2-hydroxyethyl)-1,2,4-oxadiazol-5-yl)methyl)-6-methoxypyrimidin-4(3H)-one] the IC50 (hERG channel) was greater than 50 µM and the IC50 (human TRPA1 channel) was less than 0.3 µM.
